Assay results from article PMC11266932, “Enhanced absorption of prenylated cinnamic acid derivatives from Brazilian green propolis by turmeric in humans and rats” (Food Science & Nutrition, 2024).
Where two headings read alike, the source gives them in different places.

Key:
[1] = Clinical trial: plasma concentration and AUC of cinnamic acid derivatives after ingestion of BGP alone or BGP plus herbal extract mixture; assay type: in vivo; settings: humans, BGP and herbal extracts co-administered; for AUC: plasma 0–24 h, after enzymatic deconjugation, mean ± SD, n = 6; for fold increase of AUC versus BGP administered alone: 0–24 h
Protocol: Six volunteers (three males and three females) completely understood the study protocol and consented to participate in the research. The following exclusion criteria were used for shortlisting participants: past or present medical history (asthma, significant allergies, heart, liver, kidney, and urinary tract disease); prescribed medication; pregnancy; smoking (>20 cigarettes/day); alcohol consumption (>500 mL/day of beer); use of dietary supplements and healthy foods; and participation in other clinical trials. The participants were instructed to refrain from consuming propolis and propolis‐containing foods and beverages during the study period and 1 week prior to the start of the study. After a 12‐h fast, the participants were given a test food comprising the encapsulated BGP powder or a mixture of the BGP powder and herbal extracts in two experimental periods separated by 1 week. […] The collected samples were centrifuged at 1500 g for 3 min at 23 ± 2°C to separate the plasma, which was subsequently preserved at −80°C until further sample preparation.
(§1) Briefly, 50 μL of plasma was treated with a sulfatase/β‐glucuronidase solution (sulfatase 15 units/sample) in 100 mM sodium acetate and 5 mM ascorbate at 37°C for 1 h. Following the incubation, 850 μL of methanol was added to the samples to stop the deconjugation reaction, after which centrifugation was performed at 2000 g for 10 min at 23 ± 2°C. The supernatant was evaporated under nitrogen gas and then reconstituted in a fixed volume of methanol. The samples were filtered through a 0.22 μm PTFE membrane and then analyzed by LC–MS/MS.
(§2) Briefly, 5 μL of the sample was injected into a reversed‐phase column (Acquity UPLC BEH C18, 2.1 × 100 mm, ID. 1.7 μm; Waters, Milford, MA, USA) held at 30°C. The elution was performed using solvent A (0.1% formic acid) and solvent B (acetonitrile) at a flow rate of 0.3 mL/min. The gradient profiles were as follows: 5% B (0–2 min), 5–95% B (2–22 min), 95% B (22–25 min), and 5% B (25–30 min). Tandem mass spectrometry (MS/MS) was conducted using an ion trap mass spectrometer with a heated electrospray ion source (HESI) in both positive and negative ionization modes (scan range m/z 70–1000). […] External standard curves for cinnamic acid derivatives were generated using eight concentrations of authentic standard solutions (1, 5, 10, 50, 100, 250, 500, and 1000 ng/mL).
(§3) Quantification of cinnamic acid derivatives in the plasma was performed using the Trace Finder software version 4.1 (Thermo Scientific). The plasma concentration versus time data for the analytes obtained from each human and rat were entered into a Microsoft Excel spreadsheet. The area under the plasma concentration–time curve (AUC) was calculated using the linear trapezoidal rule, extending to the last sampling point.

[2] = Animal study: plasma concentration and AUC of cinnamic acid derivatives after intragastric BGP with or without each herbal extract; assay type: in vivo, Wistar/ST rats; settings: rats
Protocol: Wistar/ST rats (male, 7 weeks old) were purchased from Japan SLC (Shizuoka, Japan). […] The rats were quarantined and acclimatized under the above conditions for 1 week and divided into six groups (eight rats/group) according to their average body weight (240–260 g). Each test sample listed in Table 1 was dissolved in 10% propylene glycol (1 mL per rat) and administered intragastrically to the rats after an overnight fasting period with free access to water. […] The collected samples were centrifuged at 1500 g for 10 min at 4°C to separate the plasma and preserved at −80°C until further sample preparation.
as §1, §2, §3

[3] = BGP co-administered with turmeric extract

CC(C)=CCc1cc(C=CC(=O)O)cc(O)c1O [3,4‐dihydroxy‐5‐prenylcinnamic acid]
AUC ([1]; both sexes, human, oral, read-out: AUC): 34.5 ± 12.2 ng·h/mL
fold increase of AUC versus BGP administered alone [1]: 1.8 fold
change of plasma concentration versus BGP alone (in words) ([2]; BGP + turmeric extract, at 30 min and 3 h): significant increases or increasing trends
change of AUC versus BGP alone (in words) ([2]; BGP co-administered with gotu kola extract): tended to increase
change of AUC versus BGP alone (in words) [2, 3]: tended to increase

CC(C)=CCc1cc(/C=C/C(=O)O)cc(C/C=C(\C)CO)c1O [capillartemisin A]
fold increase of AUC versus BGP administered alone [1]: 1.6 fold
AUC [1]: 57.0 ± 16.5 ng·h/mL
fold increase of plasma concentration versus BGP alone ([2]; BGP + turmeric extract, 30 min after administration): 2.2 fold
fold increase of plasma concentration versus BGP alone ([2]; BGP + turmeric extract, 3 h after administration): 1.7 fold
fold increase of plasma concentration versus BGP alone ([2]; BGP + turmeric extract, 6 h after administration): 3.0 fold
fold increase of AUC versus BGP administered alone [2, 3]: 1.7 fold
